A value given as a limit tells only on which side of the number the result lay.

Common to all, as to assay type: functional
Test [1] is filed under the species Homo sapiens. The test can be described thus: Concentration yielding an amount of cellular protein at the end of the incubation that is the same as at the beginning of the incubation in full panel.
Test [2] is filed under the species Homo sapiens. As to the kind of experiment: TGI correlation coefficient value of the compound.
Test [3] is filed under the species Homo sapiens. The test can be described thus: Concentration yielding an amount of cellular protein at the end of the incubation that is the same as at the beginning of the incubation in brain tumor sub panel.
The nature of test [4]: Selectivity rating for brain tumor cell line panel; i selective (**) if (A/B)> 6 and TGI-Corr > 0.8.
The nature of test [5]: Selective rating against brain tumor cell line panel; i selective (**) if (A/B)> 6 and TGI-Corr > 0.8.
A short description of test [6]: Selectivity rating against brain tumor cell line panel; i moderatelyselective (*) if 3< (A/B)< 6 and TGI-Corr > 0.8.

Regarding `Cc1c2cc[n+](CCN3CCCCC3)cc2c(C)c2c1[nH]c1ccc(O)cc12`, the TGI concentration in the test listed under Homo sapiens [1] stood at 34 µM; in the test filed under Homo sapiens [3], 20 µM. Also, in the test filed under Homo sapiens [2], the TGI correlation coefficient is on record as 0.71.
For the molecule `Cc1nccc2c(C)c3[nH]c4ccccc4c3cc12`, the TGI concentration in the test listed under Homo sapiens [1] came out at 3.6 µM; in the test listed under Homo sapiens [3], 3.7 µM. The molecule also had a TGI correlation coefficient in the test listed under Homo sapiens [2] of under 0.5.
Consider `CC(=O)[O-].Cc1c2cc[n+](C)c(C)c2cc2c1[nH]c1ccccc12`, for which the results for the TGI concentration in the test filed under Homo sapiens [1] and in the test listed under Homo sapiens [3] were 32 µM and 8.9 µM, respectively. For the same molecule, the Selectivity rating entry in test [4] is “Moderately selective”. The same molecule gave a TGI correlation coefficient in the test filed under Homo sapiens [2] of 0.8.
On to `CCN(CC)CC[n+]1ccc2c(C)c3[nH]c4ccc(O)cc4c3c(C)c2c1.[Cl-]` [DATELLIPTIUM CHLORIDE], for which the results for the TGI concentration in the test listed under Homo sapiens [1] and in the test filed under Homo sapiens [3] were 34 µM and 16 µM, respectively. The molecule further returned a TGI correlation coefficient in the test listed under Homo sapiens [2] of 0.78.
With `COc1ccc2[nH]c3c(C)c4ccncc4c(C)c3c2c1`, the figures for the TGI concentration in the test listed under Homo sapiens [1] and in the test listed under Homo sapiens [3] were 3.2 µM and 3.6 µM, respectively. The same molecule had a TGI correlation coefficient in the test filed under Homo sapiens [2] of under 0.5.
On to `Cc1c2cc[n+](C)cc2c(C)c2c1[nH]c1ccccc12`, for which, in test [5], the Selectivity rating result is given as “Selective”.
Turning to `CC(=O)[O-].Cc1c2cc[n+](C)cc2c(C)c2c1[nH]c1ccc(O)cc12` [ELLIPTINIUM ACETATE], the TGI concentration is 78 µM in the test filed under Homo sapiens [1] and 58 µM in the test listed under Homo sapiens [3]. In the test filed under Homo sapiens [2], this molecule displayed a TGI correlation coefficient of under 0.5.
`CC(=O)[O-].COc1ccc2[nH]c3c(C)c4cc[n+](C)cc4c(C)c3c2c1`: the TGI concentration in the test filed under Homo sapiens [1] is 18 µM; in the test listed under Homo sapiens [3], 2.1 µM. Besides, the TGI correlation coefficient in the test filed under Homo sapiens [2] was 0.94.
Consider `COc1ccc2[nH]c3c(C)c4cc[n+](C)cc4c(C)c3c2c1`, for which, in test [5], the Selectivity rating result is recorded as “Selective”.
With `Cc1c2ccncc2c(C)c2c1[nH]c1ccc(Cl)cc12`, the TGI concentration in the test filed under Homo sapiens [1] came out at 17 µM; in the test filed under Homo sapiens [3], 16 µM. The molecule further registered a TGI correlation coefficient in the test filed under Homo sapiens [2] of under 0.5.
On to `CC(=O)[O-].Cc1ccc2[nH]c3c(C)c4cc[n+](C)cc4c(C)c3c2c1`, for which the TGI concentration in the test listed under Homo sapiens [1] worked out at 21 µM; in the test listed under Homo sapiens [3] it was 6.9 µM. For the same molecule, the Selectivity rating entry in test [6] is listed as “Moderately selective”. In the test listed under Homo sapiens [2], this molecule showed a TGI correlation coefficient of 0.83.
For the molecule `Cc1c2cc[n+](C)cc2c(C)c2c1[nH]c1ccccc12.[I-]`, the results for the TGI concentration in the test filed under Homo sapiens [1] and in the test filed under Homo sapiens [3] were 12 µM and 1.4 µM, respectively. The molecule also returned a TGI correlation coefficient in the test listed under Homo sapiens [2] of 0.96.
On to `CC(=O)[O-].Cc1c2cc[n+](C)cc2c(C)c2c1[nH]c1ccc(Cl)cc12`, for which the TGI concentration is 22 µM in the test listed under Homo sapiens [1] and 4.7 µM in the test listed under Homo sapiens [3]. Further, the Selectivity rating entry in test [6] is “Moderately selective”. In the test filed under Homo sapiens [2], this molecule registered a TGI correlation coefficient of 0.85.
Turning to `COc1ccc2[nH]c3c(C)c4cc[n+](C)cc4c(C)c3c2c1.[I-]`, the TGI concentration was 11 µM in the test filed under Homo sapiens [1] and 1.1 µM in the test listed under Homo sapiens [3]. In the test listed under Homo sapiens [2], this molecule showed a TGI correlation coefficient of 1.
For `C=CCCCCn1c2ccccc2c2c(C)c3c[n+](C)ccc3c(C)c21.CC(=O)[O-]`, the TGI concentration worked out at 2.9 µM in the test listed under Homo sapiens [1] and 1.8 µM in the test filed under Homo sapiens [3]. In the test filed under Homo sapiens [2], this molecule came in with a TGI correlation coefficient of 0.6.
In the same order, the values of `Cc1c2ccncc2c(C)c2c1[nH]c1ccc(O)cc12` are 2.8 µM, 3.4 µM and under 0.5.
Regarding `Cc1c2ccncc2c(C)c2c1[nH]c1ccccc12` [ELLIPTECINE], the results for the TGI concentration in the test filed under Homo sapiens [1] and in the test listed under Homo sapiens [3] were 3 µM and 2.9 µM, respectively. In the test listed under Homo sapiens [2], this molecule came in with a TGI correlation coefficient of under 0.5.
Regarding `Cc1c2cc[n+]([O-])cc2c(C)c2c1[nH]c1ccccc12`, the TGI concentration in the test filed under Homo sapiens [1] worked out at 62 µM; in the test listed under Homo sapiens [3], 41 µM. This molecule also returned a TGI correlation coefficient in the test listed under Homo sapiens [2] of under 0.5.
With `Cc1c2cc[n+](Cc3ccc(I)cc3)cc2c(C)c2c1[nH]c1ccccc12.[Cl-]`, the TGI concentration in the test filed under Homo sapiens [1] is 44 µM; in the test filed under Homo sapiens [3], 54 µM. The molecule further had a TGI correlation coefficient in the test listed under Homo sapiens [2] of under 0.5.
As for `CC(=O)[O-].Cc1c2cc[n+](C)cc2c(C)c2c1oc1ccccc12`, the TGI concentration was 20 µM in the test filed under Homo sapiens [1] and 5.5 µM in the test filed under Homo sapiens [3]. Besides, the Selectivity rating entry in test [6] was “Moderately selective”. In the test filed under Homo sapiens [2], this molecule yielded a TGI correlation coefficient of 0.89.
For `CS(=O)(=O)[O-].Cc1c2cc[n+](C)cc2c(C)c2c1[nH]c1ccccc12`, the TGI concentration in the test listed under Homo sapiens [1] was determined as 11 µM; in the test listed under Homo sapiens [3], 1 µM. For the same molecule, in the test listed under Homo sapiens [2], the TGI correlation coefficient is recorded as 0.86.
In the same order, the values of `Cc1ccc2[nH]c3c(C)c4ccncc4c(C)c3c2c1` are 2.7 µM, 3.1 µM and under 0.5.
Turning to `CCN(CC)CC[n+]1ccc2c(C)c3[nH]c4ccccc4c3c(C)c2c1.[Br-]`, the TGI concentration in the test filed under Homo sapiens [1] was found to be 4.2 µM; in the test listed under Homo sapiens [3] it was 2.7 µM. In addition, the TGI correlation coefficient in the test listed under Homo sapiens [2] was determined as 0.66.

The values above are taken from ChEMBL document CHEMBL1127573, “Anticancer specificity of some ellipticinium salts against human brain tumors in vitro” (1994).
